pIC50: −log10 of the molar value. Where two headings read alike, the source gives them in different places.

Data on ten compounds can be found in patent publication US10246429B2, “Vinyl fluoride cyclopropyl fused thiazin-2-amine compounds as beta-secretase inhibitors and methods of use” (AMGEN INC., priority 2015, dated 2019).

In one data set the test system is Aβ 40. In words: In vivo inhibition of beta-secretase: Aβ 40 reduction in rat CSF and brain.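 Also: male Sprague Dawley rats dosed orally in 2% HPMC, 1% Tween80 (pH 2.2) vehicle, Aβ40 quantified by sandwich ECL-based ELISA in CSF and brain supernatants.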 The following applies: after 4 hrs, versus vehicle.
The next data set has as its target Cathepsin D (CatD) (Homo sapiens (Human), UniProt P07339). Put plainly: CatD assay. Format: biochemical. The settings on record: read-out: IC50 IP (μM) CatD.
The target in a further data set is BACE2 (Homo sapiens (Human), UniProt Q9Y5Z0). Put plainly: In vitro enzymatic BACE2 FRET assay. Format: biochemical. The settings on record: for IC50: read-out: IC50 IP (μM) BACE2 Enzyme.
Chain of BACE2 (Q9Y5Z0 63-518): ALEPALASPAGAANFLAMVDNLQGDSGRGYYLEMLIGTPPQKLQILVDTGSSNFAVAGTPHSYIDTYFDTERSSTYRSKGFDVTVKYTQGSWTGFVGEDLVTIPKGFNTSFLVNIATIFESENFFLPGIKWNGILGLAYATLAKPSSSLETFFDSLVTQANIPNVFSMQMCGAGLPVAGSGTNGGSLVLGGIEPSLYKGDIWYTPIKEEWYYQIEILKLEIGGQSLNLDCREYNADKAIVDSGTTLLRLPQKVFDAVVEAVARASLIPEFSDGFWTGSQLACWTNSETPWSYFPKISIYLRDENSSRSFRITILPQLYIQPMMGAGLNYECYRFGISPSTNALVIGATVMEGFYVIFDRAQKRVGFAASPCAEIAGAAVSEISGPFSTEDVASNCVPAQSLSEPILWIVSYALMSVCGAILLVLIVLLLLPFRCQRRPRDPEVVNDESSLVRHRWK
The target of data set [1] is T1, BACE1 (Homo sapiens (Human), UniProt P56817). Put plainly: In vitro enzymatic BACE1 FRET assay. The settings on record: for IC50: read-out: IC50 IP (μM) BACE1 Enzyme. Format: biochemical.
Target sequence in this assay (P56817 46-501): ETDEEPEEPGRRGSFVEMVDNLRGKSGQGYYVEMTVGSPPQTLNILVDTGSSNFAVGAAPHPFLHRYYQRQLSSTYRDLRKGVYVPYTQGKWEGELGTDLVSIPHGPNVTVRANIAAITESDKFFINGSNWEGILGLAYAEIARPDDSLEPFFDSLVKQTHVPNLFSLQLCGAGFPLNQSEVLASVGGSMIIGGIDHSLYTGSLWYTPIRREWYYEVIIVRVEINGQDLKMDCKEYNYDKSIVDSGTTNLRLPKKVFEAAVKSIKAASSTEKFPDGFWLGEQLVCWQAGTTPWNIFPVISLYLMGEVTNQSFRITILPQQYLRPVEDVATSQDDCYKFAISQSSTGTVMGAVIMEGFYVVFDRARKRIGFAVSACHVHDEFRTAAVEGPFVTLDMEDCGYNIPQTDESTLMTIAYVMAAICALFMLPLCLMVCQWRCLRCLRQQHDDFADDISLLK
From the text: (§1) In Vitro Enzymatic BACE1 and BACE2 FRET (Fluorescence Resonance Energy Transfer) Assays (Enzyme Assay Data in Table 1)
Data set [2] concerns the target T1, BACE1. In words: BACE1 cell assay. Format: cell-based. The settings on record: for IC50: read-out: IC50 IP (μM) BACE1 Cell.
Target sequence in this assay (P56817 46-501, species assumed): as the sequence (P56817 46-501) above
For data set [3], the target named is T1, BACE1. The settings on record: cited from earlier work.
Target sequence in this assay (P56817 46-501): as above
Data set [4] deals with pigment epithelium of the rat's eye. The following applies: higher compound dose given for three months; cited from earlier work.

Chain of Cathepsin D (CatD) (P07339 65-412, species assumed): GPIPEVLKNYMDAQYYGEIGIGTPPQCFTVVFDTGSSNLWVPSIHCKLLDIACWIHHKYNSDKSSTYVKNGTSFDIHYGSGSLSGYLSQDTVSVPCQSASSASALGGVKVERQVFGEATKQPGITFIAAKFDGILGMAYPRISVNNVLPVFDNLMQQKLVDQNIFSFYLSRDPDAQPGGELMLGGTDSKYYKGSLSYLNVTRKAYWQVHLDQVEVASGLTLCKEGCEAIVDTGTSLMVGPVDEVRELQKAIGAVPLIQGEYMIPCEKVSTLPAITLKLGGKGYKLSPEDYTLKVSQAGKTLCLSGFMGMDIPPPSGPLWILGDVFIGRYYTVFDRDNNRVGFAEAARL
From the text for Aβ 40: Several animal models, including mouse, rat, dog, and monkey, may be used to screen for inhibition of beta-secretase activity in vivo following administration of a test compound sample. […] A separate group of animals receive 2% hydroxypropyl methylcellulose, 1% Tween80 alone, containing no test compound, and serve as a vehicle-control group. At the end of the test period, animals are sacrificed and brain tissues, plasma or cerebrospinal fluid are collected. […] Homogenates are centrifuged at 355,000 g, 4° C. for 30 minutes. CSF or brain supernatants are then analyzed for the presence of Aβ by specific sandwich ELISA assays based on ECL (Electrochemiluminescence) technology. For example, rat Abeta40 is measured using biotinylated-4G8 (Signet) as a capture antibody and Fab40 (an in-house antibody specific to the C-terminal of Abeta40) as a detection antibody. […] Actual vehicles used: Oral: 2% HPMC, 1% Tween80, pH 2.2
From the text for BACE2: as §1

One may read the IC50 as the midpoint of a concentration-inhibition curve. In general, pIC50 refers to the negative decadic logarithm of the IC50, by convention in mol/L. A lower pIC50 goes with a large IC50. As to `CNC(=O)[C@]12C[C@H]1[C@@](C)(c1cc(/C=C(\F)c3cnc(C#N)cn3)ccc1F)N=C(N)S2` [Example 223, (1S,5S,6S)-3-amino-5-(5-((Z)-2-(5-cyanopyrazin-2-yl)-2-fluorovinyl)-2-fluorophenyl)-N,5-dimethyl-2-thia-4-azabicyclo[4.1.0]hept-3-ene-1-carboxamide], the “% Aβ 40 reduction in rat CSF at 10 mpk” value in the data set on Aβ 40 stood at 64%. Moreover, the “% Aβ 40 reduction in rat brain at 10 mpk” value in the data set with Aβ 40 is listed as 48%. Further, the IC50 is 234 µM on Cathepsin D (CatD), 0.08 µM at BACE2 and 0.0018 µM at BACE1 [1]. Further, at BACE1 [2], the pIC50 is 8.66.

Turning to `CC#CCOc1cnc(/C(F)=C/c2ccc(F)c([C@@]3(C)N=C(N)S[C@@]4(S(C)(=O)=O)C[C@H]43)c2)cn1` [Example 231, (1R,5S,6S)-5-(5-((Z)-2-(5-(but-2-yn-1-yloxy)pyrazin-2-yl)-2-fluorovinyl)-2-fluorophenyl)-5-methyl-1-(methylsulfonyl)-2-thia-4-azabicyclo[4.1.0]hept-3-en-3-amine], the “% Aβ 40 reduction in rat CSF at 10 mpk” value in the data set with Aβ 40 turned out to be 37%. The “% Aβ 40 reduction in rat brain at 10 mpk” value in the data set with Aβ 40 is reported as 26%. Also, the IC50 amounted to 47.8 µM on Cathepsin D (CatD), 0.03 µM on BACE2, 0.0002 µM at BACE1 [1] and 0.0029 µM on BACE1 [2].

Regarding `CC#CCOc1cnc(/C(F)=C/c2ccc(F)c([C@@]3(C)N=C(N)S[C@@]4(C(N)=O)C[C@H]43)c2)cn1` [Example 241, (1S,5S,6S)-3-amino-5-(5-((Z)-2-(5-(but-2-yn-1-yloxy)pyrazin-2-yl)-2-fluorovinyl)-2-fluorophenyl)-5-methyl-2-thia-4-azabicyclo[4.1.0]hept-3-ene-1-carboxamide], in the data set on Aβ 40, the “% Aβ 40 reduction in rat CSF at 10 mpk” value amounted to 45%. For the same compound, the “% Aβ 40 reduction in rat brain at 10 mpk” value in the data set on Aβ 40 was 47%. Also, the IC50 is 165 µM on Cathepsin D (CatD), 0.115 µM on BACE2, 0.0004 µM at BACE1 [1] and 0.0039 µM on BACE1 [2].

For the compound `C#CCOc1cnc(/C(F)=C/c2cnc(F)c([C@@]3(C)N=C(N)S[C@@]4(C(=O)N5[C@H]6COC[C@H]5COC6)C[C@H]43)c2)cn1` [Example 284, ((1S,5S,6S)-3-amino-5-(2-fluoro-5-((Z)-2-fluoro-2-(5-(prop-2-yn-1-yloxy)pyrazin-2-yl)vinyl)pyridin-3-yl)-5-methyl-2-thia-4-azabicyclo[4.1.0]hept-3-en-1-yl)((1R,5R)-3,7-dioxa-9-azabicyclo[3.3.1]nonan-9-yl)methanone], the “% Aβ 40 reduction in rat CSF at 10 mpk” value with Aβ 40 came out at 14%. Further, the “% Aβ 40 reduction in rat brain at 10 mpk” value in the data set on Aβ 40 is recorded as 4%. Besides, the IC50 worked out at 133 µM on Cathepsin D (CatD) and 0.0035 µM at BACE1 [2]. In addition, the pIC50 on BACE2 was 6.59; against BACE1 [1], 8.41.

For `COC[C@]12C[C@H]1[C@@](C)(c1cc(/C=C(\F)c3cnc(C#N)cn3)ccc1F)N=C(N)S2` [Example 299, 5-((Z)-2-(3-((1S,5S,6S)-3-amino-1-(methoxymethyl)-5-methyl-2-thia-4-azabicyclo[4.1.0]hept-3-en-5-yl)-4-fluorophenyl)-1-fluorovinyl)pyrazine-2-carbonitrile], the “% Aβ 40 reduction in rat CSF at 10 mpk” value with Aβ 40 was 71%. Also, the “% Aβ 40 reduction in rat brain at 10 mpk” value with Aβ 40 was 64%. The IC50 at Cathepsin D (CatD) is 491 µM; at BACE2, 0.259 µM; at BACE1 [1], 0.0073 µM; on BACE1 [2] it was 0.0063 µM.

For `C#CCOc1cnc(/C(F)=C/c2cnc(F)c([C@@]3(C)N=C(N)S[C@@]4(C(=O)N5CCOCC5)C[C@H]43)c2)cn1` [Example 301, ((1S,5S,6S)-3-amino-5-(2-fluoro-5-((Z)-2-fluoro-2-(5-(prop-2-yn-1-yloxy)pyrazin-2-yl)vinyl)pyridin-3-yl)-5-methyl-2-thia-4-azabicyclo[4.1.0]hept-3-en-1-yl)(morpholino)methanone], the “% Aβ 40 reduction in rat CSF at 10 mpk” value in the data set with Aβ 40 was 48%. The “% Aβ 40 reduction in rat brain at 10 mpk” value in the data set on Aβ 40 was 41%. The values for the IC50 on Cathepsin D (CatD), on BACE2 and on BACE1 [1] were 177 µM, 0.309 µM and 0.0018 µM, respectively. The pIC50 against BACE1 [2] was 8.35.

Take `C#CCOc1cnc(/C(F)=C/c2ccc(F)c([C@@]3(C)N=C(N)S[C@@]4(C(=O)NCC(F)F)C[C@H]43)c2)cn1` [Example 302, (1S,5S,6S)-3-amino-N-(2,2-difluoroethyl)-5-(2-fluoro-5-((Z)-2-fluoro-2-(5-(prop-2-yn-1-yloxy)pyrazin-2-yl)vinyl)phenyl)-5-methyl-2-thia-4-azabicyclo[4.1.0]hept-3-ene-1-carboxamide]: the “% Aβ 40 reduction in rat CSF at 10 mpk” value with Aβ 40 is 62%. The “% Aβ 40 reduction in rat brain at 10 mpk” value in the data set on Aβ 40 came out at 55%. Also, the values for the IC50 at Cathepsin D (CatD), at BACE2 and at BACE1 [1] were 8.5 µM, 0.109 µM and 0.0019 µM, respectively. The compound further had a pIC50 against BACE1 [2] of 8.33.

Regarding `C[C@@H]1[C@H](F)CCN1C(=O)[C@]12C[C@H]1[C@@](C)(c1cc(/C=C(\F)c3ccc(C#N)cn3)ccc1F)N=C(N)S2` [Example 307, 6-((Z)-2-(3-((1S,5S,6S)-3-amino-1-((2R,3R)-3-fluoro-2-methylpyrrolidine-1-carbonyl)-5-methyl-2-thia-4-azabicyclo[4.1.0]hept-3-en-5-yl)-4-fluorophenyl)-1-fluorovinyl)nicotinonitrile], the “% Aβ 40 reduction in rat CSF at 10 mpk” value in the data set with Aβ 40 was determined as 67%. In the data set on Aβ 40, the “% Aβ 40 reduction in rat brain at 10 mpk” value worked out at 59%. Besides, the IC50 amounted to 11 µM at Cathepsin D (CatD), 0.1 µM at BACE2, 0.002 µM at BACE1 [1] and 0.002 µM at BACE1 [2].

As for `C[C@@]1(c2cc(-c3cncnc3)c(F)cc2F)CCSC(N)=N1` [LY2811376], the safety and tolerability result at BACE1 [3] (in vivo) is “safe and well tolerated”. The “Aβ reductions in lumbar CSF” value on BACE1 [3] (oral dosing of 30 or 90 mg) is “Prominent and long-lasting Aβ reductions”.

For the compound `C[C@@]1(c2cc(-c3cncnc3)c(F)cc2F)CCSC(N)=N1` [LY 2811376], the “eye toxicity finding in rat toxicology studies” value in data set [4] is recorded as “damaged the pigment epithelium of the rat's eye”.
